From patent US7642229B2, “Pharmaceutical composition and a product which includes a substituted acryloyl distamycin derivative, an antimicrotubule agent and/or an antimetabolite” (Nerviano Medical Sciences S.r.l., priority 2000, dated 2010) come the findings set out here.

Structures are written as SMILES.

This data set relates to disseminated L1210 murine leukemia. The settings on record: for Tox (number of toxic deaths/number of mice) / ILS % (increase in life span: [(median survival time of treated mice/median survival time of controls) × 100] − 100): L1210 cells 10^5/mouse iv on day 0, PNU 166196 iv + 1.6, 0.78 mg/kg/day; for Tox (number of toxic deaths/number of mice): gemcitabine iv + 1, 15 mg/kg/day; for ILS % (increase in life span: [(median survival time of treated mice/median survival time of controls) × 100] − 100): gemcitabine iv + 1, 15 mg/kg/day (2 h after PNU 166196 administration); for ILS % values: text: gemcitabine 15 mg/kg day +1 after tumor injection, PNU 166196 0.7 mg/kg days +1,6, combination at the same doses and schedule.

Consider `C=C(Br)C(=O)Nc1cc(C(=O)Nc2cc(C(=O)Nc3cc(C(=O)Nc4cc(C(=O)NCCNC(=N)N)n(C)c4)n(C)c3)n(C)c2)n(C)c1.Cl` [PNU 166196, N-(5-{[(5-{[(5-{[(2-{[amino(imino)methyl]amino}ethyl)amino]carbonyl}-1-methyl-1H-pyrrol-3-yl)amino]carbonyl}-1-methyl-1H-pyrrol-3-yl)amino]carbonyl}-1-methyl-1H-pyrrol-3-yl)-4-[(2-bromoacryloyl)amino]-1-methyl-1H-pyrrole-2-carboxamide hydrochloride], for which the “Tox (number of toxic deaths/number of mice)” value is given as 0/10, the “ILS % (increase in life span: [(median survival time of treated mice/median survival time of controls) × 100] − 100)” value came out at 58% and the ILS % values turned out to be 58%. Further, the toxicity result (text: gemcitabine alone 15 mg/kg day +1, PNU 166196 alone 0.7 mg/kg days +1,6) is on record as “without toxicity”.

`Nc1ccn([C@@H]2O[C@H](CO)[C@@H](O)C2(F)F)c(=O)n1` [Gemcitabine, gemcitabine, reference compound]: the “Tox (number of toxic deaths/number of mice)” value is reported as 0/10, the “ILS % (increase in life span: [(median survival time of treated mice/median survival time of controls) × 100] − 100)” value was determined as 50% and the ILS % values is recorded as 50%.
